The structures appear in SMILES notation.

Usually EC50 stands for the concentration giving half of the maximal effect. Lower therefore signals greater potency.

The target of this assay is Endothelial PAS domain-containing protein 1 (Homo sapiens, UniProt Q99814). The experiment in a line: VEGF ELISA Assay. The procedure:
Four hours later, compounds were dispensed into wells by Tecan D300e digital dispenser with starting concentration of 10 uM and log of dilution down to 1 nM as final concentration. Each concentration of treatment was performed in duplicate. About 20 hours later, medium was removed and fresh medium was added, followed by compounds treatment as described above. After 24 hours, cell culture medium was collected to determine VEGF concentration using an ELISA kit (R&D systems, cat #DVE00) following the manufacturer's instruction.
A general note: In an ELISA, binding on a coated surface is turned into a signal by an enzyme label.

Sequence of Endothelial PAS domain-containing protein 1 (Q99814 whole entry, the tested form may be a part): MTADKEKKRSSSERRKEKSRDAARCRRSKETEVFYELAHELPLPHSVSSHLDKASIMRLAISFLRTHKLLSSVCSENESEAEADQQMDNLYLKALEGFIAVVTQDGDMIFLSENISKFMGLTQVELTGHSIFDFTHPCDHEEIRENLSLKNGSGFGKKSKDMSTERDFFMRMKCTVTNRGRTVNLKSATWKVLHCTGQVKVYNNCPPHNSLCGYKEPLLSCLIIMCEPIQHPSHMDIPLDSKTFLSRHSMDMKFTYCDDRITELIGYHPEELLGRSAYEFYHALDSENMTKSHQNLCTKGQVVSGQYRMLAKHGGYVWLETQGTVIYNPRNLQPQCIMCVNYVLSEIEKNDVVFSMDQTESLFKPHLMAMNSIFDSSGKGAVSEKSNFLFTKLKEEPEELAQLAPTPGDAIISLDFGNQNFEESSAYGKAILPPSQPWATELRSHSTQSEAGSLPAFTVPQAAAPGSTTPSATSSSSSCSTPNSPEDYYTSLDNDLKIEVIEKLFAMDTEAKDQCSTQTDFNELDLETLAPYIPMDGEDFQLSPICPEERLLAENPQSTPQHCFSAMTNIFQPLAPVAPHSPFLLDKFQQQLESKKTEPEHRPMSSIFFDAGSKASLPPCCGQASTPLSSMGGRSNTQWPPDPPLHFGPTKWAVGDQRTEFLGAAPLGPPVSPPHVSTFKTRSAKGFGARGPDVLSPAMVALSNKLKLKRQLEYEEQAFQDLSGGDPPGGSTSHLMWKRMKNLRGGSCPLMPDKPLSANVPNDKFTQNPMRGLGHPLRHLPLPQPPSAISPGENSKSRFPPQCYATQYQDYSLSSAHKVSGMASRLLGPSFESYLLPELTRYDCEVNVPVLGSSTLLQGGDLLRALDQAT

Turning to `OC1c2c(ccc(Oc3cc(F)cc(F)c3)c2C(F)F)C(F)(F)C1(F)F` (stereo unspecified) [US12077506, Compound I-4], the concentration giving a half-maximal response (EC50) stood at 4 nM. In other words, the single-digit nanomolar range.
